The results in this text go back to patent US12410156B2, “Kinase inhibitors” (Insilico Medicine IP Limited, priority 2019, dated 2025).

pIC50: −log10 of the molar value.

Assay [1] deals with Human hepatic stellate cell LX-2. The assay is described as follows: LX-2 fibrosis assay, collagen production (Western blot). In kind it is cell-based. The conditions noted are these: LX-2 cells, stimulated with 4 ng/mL TGF-b for 48 hours. As to the method: Human hepatic stellate cell LX-2 were grown in DMEM (Invitrogen, 11960) supplied with 1% MEM Non-Essential Amino Acids (Invitrogen, 11140-050), 2% fetal bovine serum (Hyclone, SV30087.03), Penicillin (100 U/mL)-streptomycin (100 μg/mL) (Millipore, TMS-AB2-C) and 2 mM L-Glutamine (Invitrogen, 25030-001). After the cells grew in 12-well plates for 24 hours, the cell culture medium was changed to the same as above except using 0.4% fetal bovine serum. After 20 hour growth in the reduced serum medium, the cells were treated with indicated doses of compounds for 30 minutes. Subsequently, the cells were stimulated with 4 ng/mL TGF-b (R&D Systems, 240-B-002) for 48 hours. The cells were rinsed twice with DPBS before being harvested with 100 μL RIPA buffer (Sigma, R0278) supplemented with protease inhibitor cocktail (Roche, 04693132001) at 4° C. The total protein in each sample was quantified using BCA Protein Assay Kit (Pierce™, 23227) and equal amount of total protein of each sample was subject to Western blot analysis. Antibodies used were mouse anti-α-Actin (SPM332) ([…]), mouse anti-CTGF (E5) (sc-365970), and mouse anti-collagen α1 (3G3) (sc-293182), from Santa Cruz Biotechnologies; and mouse anti-GAPDH (6C5) (EMD Millipore, MAB374).
On the technique in general: In western blotting, separated proteins are transferred to a membrane and probed.

Assay [2] deals with T1, TNIK (Homo sapiens, UniProt Q9UKE5).
T1 construct: purchased Eurofins (Kinase Profiler service protocol)
The assay is described as follows: TNIK enzymatic assay (radiometric 33P-ATP filter assay). In kind it is biochemical. The conditions noted are these: second table (TNIK, MAP4K4, Collagen Production Data); read-out: TNIK_IC50. As for the experimental part:
The compounds were studied for function as TNIK inhibitors to generate the data of Table 1. […] (specific activity and concentration as required). The reaction is initiated by the addition of the Mg/ATP mix. After incubation for 40 minutes at room temperature, the reaction is stopped by the addition of phosphoric acid to a concentration of 0.5%.

In assay [3] the target is MAP4K4 (h) (Homo sapiens, UniProt O95819). The assay is described as follows: MAP4K4 kinase assay (radiometric 33P-ATP filter assay). In kind it is biochemical. The conditions noted are these: read-out: MAP4K4_IC50. As for the experimental part:
(specific activity and concentration as required). The reaction is initiated by the addition of the Mg/ATP mix. After incubation for 40 minutes at room temperature, the reaction is stopped by the addition of phosphoric acid to a concentration of 0.5%.

T1 sequence (Q9UKE5 whole entry): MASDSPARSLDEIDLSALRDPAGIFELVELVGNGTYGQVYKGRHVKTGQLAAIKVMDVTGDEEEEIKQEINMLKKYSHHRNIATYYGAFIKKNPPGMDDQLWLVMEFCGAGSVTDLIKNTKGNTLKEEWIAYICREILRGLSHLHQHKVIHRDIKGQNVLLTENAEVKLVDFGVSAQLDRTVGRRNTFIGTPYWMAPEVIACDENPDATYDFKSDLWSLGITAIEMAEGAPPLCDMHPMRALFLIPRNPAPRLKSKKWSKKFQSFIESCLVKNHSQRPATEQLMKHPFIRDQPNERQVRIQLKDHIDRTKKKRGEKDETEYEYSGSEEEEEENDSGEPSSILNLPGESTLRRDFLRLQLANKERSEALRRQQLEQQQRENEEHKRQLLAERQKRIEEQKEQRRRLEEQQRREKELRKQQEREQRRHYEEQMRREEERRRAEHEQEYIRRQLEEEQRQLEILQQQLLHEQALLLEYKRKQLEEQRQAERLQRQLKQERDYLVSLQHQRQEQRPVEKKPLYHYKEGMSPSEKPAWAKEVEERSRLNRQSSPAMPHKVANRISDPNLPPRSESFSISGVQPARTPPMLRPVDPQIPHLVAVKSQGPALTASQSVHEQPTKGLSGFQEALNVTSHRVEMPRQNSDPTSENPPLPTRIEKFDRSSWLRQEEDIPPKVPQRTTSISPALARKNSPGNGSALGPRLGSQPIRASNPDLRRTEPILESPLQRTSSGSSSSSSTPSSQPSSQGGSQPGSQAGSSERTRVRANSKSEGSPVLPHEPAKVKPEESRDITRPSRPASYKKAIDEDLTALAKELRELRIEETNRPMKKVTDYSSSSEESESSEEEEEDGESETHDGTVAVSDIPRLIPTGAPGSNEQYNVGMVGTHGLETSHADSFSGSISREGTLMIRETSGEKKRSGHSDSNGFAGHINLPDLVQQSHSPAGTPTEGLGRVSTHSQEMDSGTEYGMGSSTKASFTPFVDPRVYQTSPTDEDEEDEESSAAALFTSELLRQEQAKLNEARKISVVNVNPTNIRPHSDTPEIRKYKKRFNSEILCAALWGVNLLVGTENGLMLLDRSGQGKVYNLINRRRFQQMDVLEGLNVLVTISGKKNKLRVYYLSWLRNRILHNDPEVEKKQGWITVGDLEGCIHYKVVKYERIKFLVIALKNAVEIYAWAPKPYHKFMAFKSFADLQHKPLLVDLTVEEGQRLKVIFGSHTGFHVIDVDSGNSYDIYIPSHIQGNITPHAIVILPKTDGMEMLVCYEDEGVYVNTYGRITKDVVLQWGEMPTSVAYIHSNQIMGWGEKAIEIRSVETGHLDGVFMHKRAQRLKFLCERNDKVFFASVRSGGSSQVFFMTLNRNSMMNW
Sequence of MAP4K4 (h) (O95819 whole entry): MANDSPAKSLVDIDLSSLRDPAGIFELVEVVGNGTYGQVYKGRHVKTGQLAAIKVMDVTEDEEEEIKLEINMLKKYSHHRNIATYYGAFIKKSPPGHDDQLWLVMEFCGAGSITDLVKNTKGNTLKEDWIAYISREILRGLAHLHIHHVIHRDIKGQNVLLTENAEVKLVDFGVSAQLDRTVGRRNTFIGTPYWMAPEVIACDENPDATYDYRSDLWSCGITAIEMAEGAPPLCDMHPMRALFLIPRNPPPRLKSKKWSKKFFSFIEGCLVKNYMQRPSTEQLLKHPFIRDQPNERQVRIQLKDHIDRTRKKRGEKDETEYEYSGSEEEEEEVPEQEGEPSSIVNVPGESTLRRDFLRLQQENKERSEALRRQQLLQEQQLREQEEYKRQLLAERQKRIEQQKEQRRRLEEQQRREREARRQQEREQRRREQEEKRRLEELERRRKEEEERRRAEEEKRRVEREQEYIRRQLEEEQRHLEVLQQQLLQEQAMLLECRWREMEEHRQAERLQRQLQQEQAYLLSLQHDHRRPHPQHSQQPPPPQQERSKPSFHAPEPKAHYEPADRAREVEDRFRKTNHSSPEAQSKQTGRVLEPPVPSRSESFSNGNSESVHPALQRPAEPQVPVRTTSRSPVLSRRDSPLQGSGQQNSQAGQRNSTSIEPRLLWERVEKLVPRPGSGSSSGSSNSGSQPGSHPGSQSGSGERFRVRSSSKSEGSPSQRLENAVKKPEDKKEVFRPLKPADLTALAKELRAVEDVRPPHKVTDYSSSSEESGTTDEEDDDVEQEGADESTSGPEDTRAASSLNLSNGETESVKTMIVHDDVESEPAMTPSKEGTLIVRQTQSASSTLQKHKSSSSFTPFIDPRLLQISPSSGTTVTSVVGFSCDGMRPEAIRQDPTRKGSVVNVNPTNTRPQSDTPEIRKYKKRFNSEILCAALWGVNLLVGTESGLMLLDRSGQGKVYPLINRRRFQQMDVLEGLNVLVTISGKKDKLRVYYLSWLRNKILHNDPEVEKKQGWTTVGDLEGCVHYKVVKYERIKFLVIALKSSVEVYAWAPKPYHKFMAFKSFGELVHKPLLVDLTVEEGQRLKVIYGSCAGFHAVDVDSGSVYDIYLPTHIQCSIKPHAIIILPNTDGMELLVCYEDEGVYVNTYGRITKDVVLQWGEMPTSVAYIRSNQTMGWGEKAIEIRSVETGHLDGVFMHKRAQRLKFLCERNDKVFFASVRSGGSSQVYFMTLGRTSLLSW

For `O=C(Nc1ccncc1F)c1ccc(-c2c(-c3ccc(F)cc3)ncn2C2COCC2F)o1` (centres unmarked) [Compound A-53, 5-(4-(4-fluorophenyl)-1-(4-fluorotetrahydrofuran-3-yl)-1H-imidazol-5-yl)-N-(3-fluoropyridin-4-yl)furan-2-carboxamide], the midpoint of the response in assay [1] (LX-2, 48 h), the EC50, lay at 1.98 µM.
As for `O=C(Nc1ccncc1F)c1ccc(-c2c(-c3ccc(F)cc3)ncn2[C@@H]2COC[C@H]2F)o1` (racemic) [Compound A-54, rac-5-(4-(4-fluorophenyl)-1-((3R,4S)-4-fluorotetrahydrofuran-3-yl)-1H-imidazol-5-yl)-N-(3-fluoropyridin-4-yl)furan-2-carboxamide], the pIC50 in assay [2] is 7.22; in assay [3], 7.44. Also, in assay [1] (LX-2, 48 h), the EC50 – broadly, the concentration needed to bring the measured effect to its halfway point – turned out to be 0.983 µM.
Consider `CN1CCN(c2ccc(NC(=O)c3ccc(-c4c(-c5ccc(F)cc5)ncn4C4CCCC4)o3)c(F)c2)CC1` [Compound A-52, 4-(4-(5-(1-cyclopentyl-4-(4-fluorophenyl)-1H-imidazol-5-yl)furan-2-carboxamido)-3-fluorophenyl)-1-methylpiperazin-1-ium], for which, in assay [1], the EC50 was 0.042 µM.
